Data on 20 compounds can be found in ChEMBL document CHEMBL1201862, “PubChem BioAssay data set” (2004).

In assay [1] the target is T1, Corticotropin-releasing factor receptor 2/Corticotropin-releasing factor-binding protein (Homo sapiens, UniProt P24387+Q13324).
T1 sequence (Q13324 whole entry): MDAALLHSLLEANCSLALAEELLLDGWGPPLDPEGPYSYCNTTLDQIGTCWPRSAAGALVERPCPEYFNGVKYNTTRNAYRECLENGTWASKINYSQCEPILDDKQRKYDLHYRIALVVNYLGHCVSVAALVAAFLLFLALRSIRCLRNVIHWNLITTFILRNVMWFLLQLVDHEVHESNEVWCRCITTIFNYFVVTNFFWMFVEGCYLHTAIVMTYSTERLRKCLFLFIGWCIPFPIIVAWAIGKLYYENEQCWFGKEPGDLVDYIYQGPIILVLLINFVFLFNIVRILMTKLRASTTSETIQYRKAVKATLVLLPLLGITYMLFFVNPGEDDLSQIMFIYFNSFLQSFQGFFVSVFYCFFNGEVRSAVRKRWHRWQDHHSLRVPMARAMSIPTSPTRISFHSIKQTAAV
T1 sequence (P24387 whole entry): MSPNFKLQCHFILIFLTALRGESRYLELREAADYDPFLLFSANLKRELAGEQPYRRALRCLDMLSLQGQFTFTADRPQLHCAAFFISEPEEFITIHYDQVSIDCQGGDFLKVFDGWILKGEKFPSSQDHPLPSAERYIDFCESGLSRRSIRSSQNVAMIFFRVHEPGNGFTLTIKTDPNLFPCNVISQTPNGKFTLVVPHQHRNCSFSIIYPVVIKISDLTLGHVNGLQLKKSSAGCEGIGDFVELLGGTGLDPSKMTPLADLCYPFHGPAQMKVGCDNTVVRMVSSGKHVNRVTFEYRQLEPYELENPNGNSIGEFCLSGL
Put plainly: Dose Response confirmation of uHTS hits for small molecule antagonists of the CRF-binding protein and CRF-R2 receptor complex. Format: functional. Conditions: read-out: IC50_Mean.

The target in assay [2] is T1, Corticotropin-releasing factor receptor 2/Corticotropin-releasing factor-binding protein. In words: activators of CRF receptor 2 with binding protein – uHTS hits, confirmation (AID 602473). Format: functional. The settings on record: read-out: EC50_Mean.
The next assay deals with P388. Put plainly: cells. The assay is classed as functional. The settings on record: Mus musculus.
A further assay relates to SN12K1. In words: cells. Format: functional. Conditions: Homo sapiens.
In another assay the test system is P388/ADR. In words: cells. The assay is classed as functional. The settings on record: Mus musculus.
Assay [3] is described as follows: NIH3T3 cell viability loss – ATP luminescence, mouse fibroblasts, counter-screen, dose response (AID 2010).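 Further: cells exposed to compound for about 90 hours before reading.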 Format: functional, cell-based. In general terms: Counterscreens check selectivity or assay interference.
A short description of assay [4]: Trypanosoma cruzi growth suppression in host cells – NIH3T3 host cells, beta-gal luminescence, confirmation (AID 2044).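 Further: intracellular parasites grown in NIH/3T3 mouse fibroblasts as host cells; luminescent beta-galactosidase reporter signal from transgenic T. cruzi replicating inside host cells; inhibitors lower the luminescence signal.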 The assay is classed as functional, cell-based.
Assay [5] deals with FAD-linked sulfhydryl oxidase ALR (Homo sapiens, UniProt P55789). Put plainly: ALR-catalysed DTT oxidation blockers – biochemical, H2O2 detection, luminescence, cherry-pick, dose response (AID 493248).
Sequence of FAD-linked sulfhydryl oxidase ALR (P55789 whole entry): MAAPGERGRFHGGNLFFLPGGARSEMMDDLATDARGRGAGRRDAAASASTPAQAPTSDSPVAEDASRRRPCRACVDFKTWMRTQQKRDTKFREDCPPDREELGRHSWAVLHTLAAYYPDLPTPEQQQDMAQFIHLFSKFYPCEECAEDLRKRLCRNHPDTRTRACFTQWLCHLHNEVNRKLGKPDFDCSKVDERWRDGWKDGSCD
For the next assay, the target named is Fatty acid synthase (Homo sapiens, UniProt P49327). Put plainly: inhibition of human FAS-TE enzyme activity – biochemical, kinetic fluorescence intensity, dose response (AID 624326).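 Further: rate of fluorescence rise from hydrolysis of a fluorogenic O-methyl fluorescein ester substrate.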 The assay is classed as functional.
Sequence of Fatty acid synthase (P49327 whole entry, the tested form may be a part): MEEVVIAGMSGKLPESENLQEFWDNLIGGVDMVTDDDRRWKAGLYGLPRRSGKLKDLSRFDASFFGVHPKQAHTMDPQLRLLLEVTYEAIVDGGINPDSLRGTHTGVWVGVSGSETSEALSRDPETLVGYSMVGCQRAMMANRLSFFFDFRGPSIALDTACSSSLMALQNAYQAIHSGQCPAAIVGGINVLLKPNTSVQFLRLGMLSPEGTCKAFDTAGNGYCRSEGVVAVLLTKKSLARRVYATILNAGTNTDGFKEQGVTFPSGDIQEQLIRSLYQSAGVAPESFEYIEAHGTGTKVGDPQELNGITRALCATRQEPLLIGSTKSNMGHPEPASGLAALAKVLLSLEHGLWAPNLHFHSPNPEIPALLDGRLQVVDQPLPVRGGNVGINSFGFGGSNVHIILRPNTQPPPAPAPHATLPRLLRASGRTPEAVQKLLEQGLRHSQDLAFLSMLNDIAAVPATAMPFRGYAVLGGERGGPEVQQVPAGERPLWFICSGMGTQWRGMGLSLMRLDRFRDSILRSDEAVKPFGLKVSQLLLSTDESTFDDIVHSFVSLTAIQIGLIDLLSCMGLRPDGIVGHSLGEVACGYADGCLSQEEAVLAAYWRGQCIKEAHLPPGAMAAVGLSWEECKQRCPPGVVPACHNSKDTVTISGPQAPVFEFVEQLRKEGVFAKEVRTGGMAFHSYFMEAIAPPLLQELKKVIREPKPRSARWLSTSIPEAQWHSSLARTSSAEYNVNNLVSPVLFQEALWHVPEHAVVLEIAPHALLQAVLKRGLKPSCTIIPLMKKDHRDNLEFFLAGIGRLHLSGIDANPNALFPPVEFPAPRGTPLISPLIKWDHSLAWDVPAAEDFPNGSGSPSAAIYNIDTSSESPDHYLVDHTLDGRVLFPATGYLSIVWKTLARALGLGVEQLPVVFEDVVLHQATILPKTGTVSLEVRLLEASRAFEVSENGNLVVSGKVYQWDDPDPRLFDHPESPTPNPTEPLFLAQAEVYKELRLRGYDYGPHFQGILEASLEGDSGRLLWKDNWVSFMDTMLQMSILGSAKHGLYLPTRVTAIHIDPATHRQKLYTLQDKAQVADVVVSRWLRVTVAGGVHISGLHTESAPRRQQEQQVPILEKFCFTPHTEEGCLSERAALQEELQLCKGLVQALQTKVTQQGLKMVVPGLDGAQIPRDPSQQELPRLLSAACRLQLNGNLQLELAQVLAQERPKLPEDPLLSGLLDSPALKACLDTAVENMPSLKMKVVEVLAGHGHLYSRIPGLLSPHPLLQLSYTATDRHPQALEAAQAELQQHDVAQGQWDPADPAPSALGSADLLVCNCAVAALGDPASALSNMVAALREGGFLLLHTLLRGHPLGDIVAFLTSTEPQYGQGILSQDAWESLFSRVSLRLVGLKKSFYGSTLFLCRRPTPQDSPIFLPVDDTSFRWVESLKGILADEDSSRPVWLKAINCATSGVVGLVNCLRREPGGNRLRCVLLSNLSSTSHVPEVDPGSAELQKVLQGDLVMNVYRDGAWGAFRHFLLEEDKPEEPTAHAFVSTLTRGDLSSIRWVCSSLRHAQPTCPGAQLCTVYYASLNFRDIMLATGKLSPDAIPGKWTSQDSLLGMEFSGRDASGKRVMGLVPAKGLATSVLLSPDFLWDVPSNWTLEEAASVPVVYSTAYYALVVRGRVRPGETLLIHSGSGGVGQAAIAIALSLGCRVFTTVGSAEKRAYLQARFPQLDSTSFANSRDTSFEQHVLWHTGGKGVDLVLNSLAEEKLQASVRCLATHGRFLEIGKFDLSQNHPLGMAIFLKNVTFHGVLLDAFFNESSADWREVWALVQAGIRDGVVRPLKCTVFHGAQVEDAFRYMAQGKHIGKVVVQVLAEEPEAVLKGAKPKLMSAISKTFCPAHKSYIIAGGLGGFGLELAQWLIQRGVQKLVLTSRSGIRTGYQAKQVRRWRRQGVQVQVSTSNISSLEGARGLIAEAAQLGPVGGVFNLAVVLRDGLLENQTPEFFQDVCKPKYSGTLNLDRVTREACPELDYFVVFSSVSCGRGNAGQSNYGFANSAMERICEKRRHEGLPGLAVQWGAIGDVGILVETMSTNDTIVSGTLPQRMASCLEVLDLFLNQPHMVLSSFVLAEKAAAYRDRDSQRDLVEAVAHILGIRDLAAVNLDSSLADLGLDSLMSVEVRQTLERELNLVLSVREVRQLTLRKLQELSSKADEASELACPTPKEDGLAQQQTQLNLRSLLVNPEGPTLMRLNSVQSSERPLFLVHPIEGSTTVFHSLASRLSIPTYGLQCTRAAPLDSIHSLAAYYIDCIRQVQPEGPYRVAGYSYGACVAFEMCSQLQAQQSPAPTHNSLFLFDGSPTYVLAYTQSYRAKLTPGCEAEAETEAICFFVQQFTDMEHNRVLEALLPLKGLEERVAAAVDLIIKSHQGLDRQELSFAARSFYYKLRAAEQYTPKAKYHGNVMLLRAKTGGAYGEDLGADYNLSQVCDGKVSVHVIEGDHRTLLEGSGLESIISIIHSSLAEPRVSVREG
A short description of assay [6]: blockers of HIV-1 ZM109 envelope-driven cell-cell fusion – HeLa effector, CEM target cells, luciferase, cherry-pick, dose response (AID 652058).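 Further: luciferase signal from HIV-1 Env mediated cell-cell fusion of effector and target cells.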 Format: functional, cell-based.

Active and inactive are the calls of the source.

`COC(=O)C1=C(C(=O)c2ccccc2)C(c2ccc(O)c(OC)c2)n2nnnc2N1` (configuration not stated): the IC50 in assay [1] is > 47.1 µM (inactive). In assay [2], the EC50 was > 53 µM (inactive).

In general, GI50 refers to the concentration at which growth is held to half of that of the control. Turning to `Cc1c2cc[n+]([O-])cc2c(C)c2c1[nH]c1ccccc12`, the GI50 is 0.753 µM (active) in the assay on P388, 3.38 µM (inactive) with SN12K1 and 4.45 µM (inactive) with P388/ADR.

`OCC1OC(n2cnc3c2NC=NC[C@H]3O)CC1O` (some centres not stated): the GI50 with P388 was 366 µM (inactive); with SN12K1, 405 µM (inactive); with P388/ADR, 291 µM (inactive).

Turning to `Fc1ccc(OCCCCCn2ccnc2)cc1`, in assay [1], the IC50 is > 47.1 µM (inactive). Also, the EC50 in assay [3] was > 60 µM (not active); in [2], > 53 µM (inactive); in assay [4], 1.67 µM (active).

One may read the AC50 as the concentration giving half of the maximal activity seen. On to `C=CCn1c(SCc2ccc(C(=O)O)cc2)nc2sc(C)c(C)c2c1=O`, for which the AC50 in assay [5] was 4.74 µM (active).

On to `CN(C)c1ccc(C(=O)NNC(=O)c2ccc(Cl)cc2)cc1`, for which the IC50 in assay [1] was > 47.1 µM (inactive). Also, the EC50 in assay [2] is > 53 µM (inactive).

Regarding `Cn1ccnc1SCc1cn2ccccc2n1`, the IC50 in assay [1] was > 47.1 µM (inactive). Moreover, the EC50 in assay [2] is > 53 µM (inactive).

As to `COc1ccc2c(C)cc(SCn3nnc4ccccc4c3=O)nc2c1`, the IC50 in assay [1] is > 47.1 µM (inactive). In assay [2], the EC50 was > 53 µM (inactive).

With `COc1cccc2c1C(=O)c1c(O)c3c(c(O)c1C2=O)C[C@@](O)(C(=O)CO)C[C@@H]3OC1CC(N2CCOCC2C#N)C(O)C(C)O1` (some centres not stated), the GI50 is 2.9e-06 µM (active) with P388 and 1.13e-05 µM (active) in the assay with SN12K1.

In the case of `Cc1c(-c2cc3n(n2)C(c2cccs2)C(C#N)=C(c2ccccc2)N3)c(=O)n(-c2ccccc2)n1C` (configuration not stated), the results for the GI50 in the assay on P388, in the assay on SN12K1 and in the assay on P388/ADR were 42.1 µM (inactive), 86.5 µM (inactive) and 76.4 µM (inactive), respectively.

`CCCNC(=O)c1cc2c3ccccc3n(C)c2s1`: the AC50 in assay [5] is 0.137 µM (active).

Consider `Cc1c2cc[n+](C)cc2c(COC2OC(CO)C(O)C2O)c2c3ccccc3n(C)c12` (configuration not stated), for which the GI50 in the assay on P388 was 2.69 µM (inactive); in the assay on SN12K1 it was 58.2 µM (inactive); in the assay on P388/ADR, > 100 µM (inactive).

On to `CNC(=O)OCc1nc(SC)n(C)c1CO`, for which the GI50 with P388, with SN12K1 and in the assay with P388/ADR was > 100 µM (inactive) in each case.

Regarding `CN(C)S(=O)(=O)c1ccc(-c2csc(-c3cccnc3)n2)cc1`, at Fatty acid synthase, the IC50 was 3.34 µM (active).

Take `O=S(=O)(Nc1ccccc1O)c1ccc2[nH]c(O)nc2c1`: the AC50 in [5] is 2.1 µM (active).

In the case of `CC1=NN(C(=O)c2ccccc2)C(=O)C1/N=N/c1ccccc1C(=O)O` (configuration not stated), the GI50 with P388 is 9.51 µM (inactive); in the assay with SN12K1, 3.24 µM (inactive); with P388/ADR, 5.55 µM (inactive).

Turning to `C[C@@H]1CN([C@H](C)CO)C(=O)c2cccc(NC(=O)c3cnccn3)c2O[C@H]1CN(C)Cc1ccccc1`, in [6], the concentration at half-maximal activity (AC50) is 36.6 µM (active).

Turning to `Cc1c(C)c(C)c(C(=O)CCc2cccc(NC(=O)CCC(=O)O)c2)c(C)c1C`, the AC50 in [5] is 1.72 µM (active).

Consider `CN(C)CCNC(=O)c1cccc2c1Nc1ccccc1S2`, for which the figures for the GI50 with P388, with SN12K1 and in the assay on P388/ADR were 2.25 µM (inactive), 8.18 µM (inactive) and 2.84 µM (inactive), respectively.

Consider `Cc1ccc(N2C(=O)CC(NNC(=O)c3cccc(S(=O)(=O)N4CCCC4)c3)C2=O)cc1` (configuration not stated), for which, in [5], the AC50 is 9.56 µM (active).
